What was measured:
Jarid1B = molecular target: T1, Jarid1B (Homo sapiens, UniProt Q9UGL1); assay: Jarid1B in vitro enzyme inhibition assay (TR-FRET); type: biochemical; conditions: Table 5; 0.8 nM Jarid1B, H3K4me3-biotin labeled peptide; read-out: JARID1B IC5
T1 construct: purchased BPS Bioscience (or custom made by MolecularThroughput) 50121
T1 sequence (Q9UGL1 2-751): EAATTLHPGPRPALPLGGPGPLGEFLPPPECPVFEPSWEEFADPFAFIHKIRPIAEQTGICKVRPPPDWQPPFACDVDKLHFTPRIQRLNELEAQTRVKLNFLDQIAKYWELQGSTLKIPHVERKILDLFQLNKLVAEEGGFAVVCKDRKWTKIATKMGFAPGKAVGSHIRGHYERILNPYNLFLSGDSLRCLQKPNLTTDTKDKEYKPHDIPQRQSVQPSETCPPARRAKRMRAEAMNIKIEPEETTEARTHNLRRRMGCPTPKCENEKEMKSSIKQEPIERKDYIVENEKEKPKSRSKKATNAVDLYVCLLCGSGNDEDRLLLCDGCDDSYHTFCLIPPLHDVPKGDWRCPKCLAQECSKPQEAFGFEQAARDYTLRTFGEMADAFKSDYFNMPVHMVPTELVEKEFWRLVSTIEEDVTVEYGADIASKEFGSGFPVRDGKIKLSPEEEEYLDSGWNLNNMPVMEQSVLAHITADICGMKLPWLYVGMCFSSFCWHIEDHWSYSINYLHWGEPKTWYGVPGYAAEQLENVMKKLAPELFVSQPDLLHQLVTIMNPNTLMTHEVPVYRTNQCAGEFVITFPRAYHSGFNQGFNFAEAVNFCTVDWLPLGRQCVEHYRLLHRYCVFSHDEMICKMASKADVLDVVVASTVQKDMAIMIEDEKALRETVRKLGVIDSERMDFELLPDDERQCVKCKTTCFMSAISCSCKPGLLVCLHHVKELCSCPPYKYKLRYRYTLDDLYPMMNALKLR
Description: (§1) This assay determines the ability of a test compound to inhibit Jarid1B, JMJD2C and JMJD3 demethylase activity. Baculovirus expressed Jarid1B (GenBank Accession #NM-006618, AA 2-751) was purchased from BPS Bioscience (Cat #50121) or custom made by MolecularThroughput. Baculovirus expressed JMJD2C (GenBank Accession #BC143571, AA 2-372) was purchased from BPS Bioscience (Cat#50105). Baculovirus expressed JMJD3 (GenBank Accession #NM-001080424, AA1043-end) was purchased from BPS Bioscience (Cat#50115).
The ability of test compounds to inhibit the activity of Jarid1B was determined in 384-well plate format under the following reaction conditions: 0.8 nM Jarid1B, 300 nM H3K4me3-biotin labeled peptide (Anaspec cat #64357), 2 µM alpha-ketoglutaric acid in assay buffer of 50 mM HEPES, pH7.3, 0.005% Brij35, 0.5 mM TCEP, 0.2 mg/ml BSA, 50 µM sodium L-ascorbate, and 2 µM ammonium iron(II) sulfate. Reaction product was determined quantitatively by TR-FRET after the addition of detection reagent Phycolink Streptavidin-allophycocyanin (Prozyme) and Europium-anti-mono-or di-methylated histone H3 lysine 4 (H3K4me1-2) antibody (PerkinElmer) in the presence of 5 mM EDTA in LANCE detection buffer (PerkinElmer) at a final concentration of 25 nM and 1 nM, respectively.
The assay reaction was initiated by the following: 2 µl of the mixture of 900 nM H3K4me3-biotin labeled peptide and 6 µM alpha-ketoglutaric acid with 2 µl of 11-point serial diluted inhibitor in 3% DMSO was added to each well of the plate, followed by the addition of 2 µl of 2.4 nM Jarid1B to initiate the reaction. The reaction mixture was incubated at room temperature for 30 minutes, and terminated by the addition of 6 µl of 5 mM EDTA in LANCE detection buffer containing 50 nM Phycolink Streptavidin-allophycocyanin and 2 nM Europium-anti-H3K4me1-2 antibody. Plates were read by EnVisionMultilabel Reader in TR-FRET mode (excitation at 320 nm, emission at 615 nm and 665 nm) after 1 hour incubation at room temperature. A ratio was calculated (665/615) for each well and fitted to determine inhibition constant (IC50).

JMJD3 = molecular target: T2, JMJD3 (Homo sapiens, UniProt O15054); assay: JMJD3 in vitro enzyme inhibition assay (AlphaScreen); type: biochemical; conditions: Table 5; 1 nM JMJD3, H3K27me3-biotin labeled peptide
T2 construct: purchased BPS Bioscience 50115
Description: as §1
The ability of test compounds to inhibit the activity of JMJD3 was determined in 384-well plate format under the following reaction conditions: 1 nM JMJD3, 250 nM H3K27me3-biotin labeled peptide (Anaspec cat # 64367), 1 µM alpha-ketoglutaric acid in assay buffer of 50 mM HEPES, pH7.3, 0.005% Brij35, 0.5 mM TCEP, 0.2 mg/ml BSA, 50 µM sodium L-ascorbate, 5 µM ammonium iron(II) sulfate. Reaction product is determined quantitatively by AlphaScreen detection after the addition of detection reagents anti-H3K27me1 antibody, 5 µg/ml AlphaScreen® Streptavidin-coated Donor beads, and 5 µg/ml AlphaScreen® Protein A Acceptor beads in 50 mM HEPES, pH7.3, 10 mM NaCl, 0.005% Brij35, 10 mM EDTA, 2 mg/ml BSA.
The assay reaction was initiated by the following: 3 µl of the mixture of 750 nM H3K27me3-biotin labeled peptide and 3 µM alpha-ketoglutaric acid with 3 µl of 11-point serial diluted inhibitor in 3% DMSO are added to each well of 384 well Proxiplate (Perkin Elmer), followed by the addition of 3 µl of 3 nM JMJD3 to initiate the reaction. The reaction mixture is incubated at room temperature for 20 minutes, and terminated by the addition of 3 µl of appropriate dilution of anti H3K27me1 antibody in 50 mM HEPES, pH7.3, 10 mM NaCl, 0.005% Brij35, 10 mM EDTA, 2 mg/ml BSA. Plates will then incubated at room temperature for 1 hour, followed by addition of 3 µl of 25 µg/ml AlphaScreen® Streptavidin-coated Donor beads and AlphaScreen® Protein A Acceptor beads in 50 mM HEPES, pH7.3, 10 mM NaCl, 0.005% Brij35, 10 mM EDTA, 2 mg/ml BSA. Plates will then be read by EnVision Multilabel Reader in AlphaScreen mode after minimum 2 hour incubation at room temperature. The AlphaScreen signal for each well is used to determine inhibition constant (IC50).

T2 sequence (O15054 1043-1682 isoform O15054-1): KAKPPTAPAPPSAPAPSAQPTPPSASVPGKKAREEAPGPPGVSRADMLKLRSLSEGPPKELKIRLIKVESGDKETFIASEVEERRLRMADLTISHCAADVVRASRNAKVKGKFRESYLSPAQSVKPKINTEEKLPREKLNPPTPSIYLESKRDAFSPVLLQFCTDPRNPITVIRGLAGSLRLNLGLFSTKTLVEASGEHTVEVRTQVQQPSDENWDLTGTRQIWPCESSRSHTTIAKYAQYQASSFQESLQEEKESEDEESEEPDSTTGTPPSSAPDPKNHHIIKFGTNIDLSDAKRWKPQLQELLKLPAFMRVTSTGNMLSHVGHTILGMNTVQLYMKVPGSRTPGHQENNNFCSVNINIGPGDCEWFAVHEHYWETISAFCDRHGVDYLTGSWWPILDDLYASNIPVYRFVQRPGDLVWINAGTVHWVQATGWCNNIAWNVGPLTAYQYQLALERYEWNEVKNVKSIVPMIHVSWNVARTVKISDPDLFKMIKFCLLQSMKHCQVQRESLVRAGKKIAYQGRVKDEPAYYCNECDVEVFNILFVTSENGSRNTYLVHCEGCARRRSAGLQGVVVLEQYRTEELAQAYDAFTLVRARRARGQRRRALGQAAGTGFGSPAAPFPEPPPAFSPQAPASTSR

Row | Structure (SMILES) | IC50 (Jarid1B) [µM] | IC50 (JMJD3) [µM]
1 | COc1ccc(CCn2cnc(-c3cc(-c4nn[nH]c4C(F)(F)F)ccn3)c2)cc1 [Example 93, 2-{1-[2-(4-methoxyphenyl)ethyl]-1H-imidazol-4-yl}-4-[5-(trifluoromethyl)-1H-1,2,3-triazol-4-yl]pyridine] | ≤ 0.1 | > 10
2 | Cc1ccc(CCn2cnc(-c3cc(-c4nn[nH]c4C(F)(F)F)ccn3)c2)cc1 [Example 91, 2-{1-[2-(4-methylphenyl)ethyl]-1H-imidazol-4-yl}-4-[5-(trifluoromethyl)-1H-1,2,3-triazol-4-yl]pyridine] | 0.1 to 1 | > 10
3 | Fc1ccccc1Cn1cnc(-c2cc(-c3nn[nH]c3C(F)(F)F)ccn2)c1 [Example 62, 2-{1-[(2-fluoroprtenyl)methyl]-1H-imidazol-4-yl}-4-[5-(trifluoromethyl)-1H-1,2,3-triazol-4-yl]pyridine] | 0.1 to 1 | > 10
4 | O=C(c1ccccc1)N1CCC[C@H](n2cnc(-c3cc(-c4nn[nH]c4C(F)(F)F)ccn3)c2)C1 [Example 90, 2-{1-[(3S)-1-benzoylpiperidin-3-yl]-1H-imidazol-4-yl}-4-[5-(trifluoromethyl)-1H-1,2,3-triazol-4-yl]pyridine] | ≤ 0.1 | > 10
5 | Cc1cc(F)ccc1Cn1cnc(-c2cc(-c3nn[nH]c3C(F)(F)F)ccn2)c1 [Example 70, 2-{1-[(4-fluoro-2-methylphenyl)methyl]-1H-imidazol-4-yl}-4-[5-(trifluoromethyl)-1H-1,2,3-triazol-4-yl]pyridine] | 0.1 to 1 | > 10
6 | COc1ccc(Cn2cnc(-c3cc(-c4nn[nH]c4C(F)(F)F)ccn3)c2)cc1 [Example 67, 2-{1-[(4-methoxyphenyl)methyl]-1H-imidazol-4-yl}-4-[5-(trifluoromethyl)-1H-1,2,3-triazol-4-yl]pyridine] | 0.1 to 1 | > 10
7 | Fc1ccc2c(c1)CCCC2Cn1cnc(-c2cc(-c3nn[nH]c3C(F)(F)F)ccn2)c1 (stereo not drawn) [Example 100, 2-{1-[(6-fluoro-1,2,3,4-tetrahydronaphthalen-1-yl)methyl]-1H-imidazol-4-yl}-4-[5-(trifluoromethyl)-1H-1,2,3-triazol-4-yl]pyridine] | ≤ 0.1 | > 10
8 | Cc1ccccc1Cn1cnc(-c2cc(-c3nn[nH]c3C(F)(F)F)ccn2)c1 [Example 66, 2-{1-[(2-methylphenyl)methyl]-1H-imidazol-4-yl}-4-[5-(trifluoromethyl)-1H-1,2,3-triazol-4-yl]pyridine] | 0.1 to 1 | > 10
9 | FC(F)(F)COc1ccccc1Cn1cnc(-c2cc(-c3nn[nH]c3C(F)(F)F)ccn2)c1 [Example 76, 2-(1-{[2-(2,2,2-trifluoroethoxy)phenyl]methyl}-1H-imidazol-4-yl)-4-[5-(trifluoromethyl)-1H-1,2,3-triazol-4-yl]pyridine] | 0.1 to 1 | > 10
10 | Fc1cccc(F)c1CCn1cnc(-c2cc(-c3nn[nH]c3C(F)(F)F)ccn2)c1 [Example 87, 2-{1-[2-(2,6-difluorophenyl)ethyl]-1H-imidazol-4-yl}-4-[5-(trifluoromethyl)-1H-1,2,3-triazol-4-yl]pyridine] | 0.1 to 1 | > 10

Now from value to compound:

Row | IC50 (Jarid1B) [µM] | IC50 (JMJD3) [µM] | Structure (SMILES)
11 | ≤ 0.1 | > 10 | Fc1ccc2c(c1)C(Cn1cnc(-c3cc(-c4nn[nH]c4C(F)(F)F)ccn3)c1)CCC2 (stereo not drawn) [Example 101, 2-{1-[(7-fluoro-1,2,3,4-tetrahydronaphthalen-1-yl)methyl]-1H-imidazol-4-yl}-4-[5-(trifluoromethyl)-1H-1,2,3-triazol-4-yl]pyridine]
12 | ≤ 0.1 | > 10 | Cc1ccc2c(c1)C(Cn1cnc(-c3cc(-c4nn[nH]c4C(F)(F)F)ccn3)c1)CCC2 (stereo not drawn) [Example 103, 2-{1-[(7-methyl-1,2,3,4-tetrahydronaphthalen-1-yl)methyl]-1H-imidazol-4-yl}-4-[5-(trifluoromethyl)-1H-1,2,3-triazol-4-yl]pyridine]
13 | ≤ 0.1 | > 10 | Fc1ccc(F)c(CCn2cnc(-c3cc(-c4nn[nH]c4C(F)(F)F)ccn3)c2)c1 [Example 88, 2-{1-[2-(2,5-difluorophenyl)ethyl]-1H-imidazol-4-yl}-4-[5-(trifluoromethyl)-1H-1,2,3-triazol-4-yl]pyridine]
14 | 0.1 to 1 | > 10 | Fc1ccc(Cn2cnc(-c3cc(-c4nn[nH]c4C(F)(F)F)ccn3)c2)c(F)c1 [Example 68, 2-{1-[(2,4-difluorophenyl)methyl]-1H-imidazol-4-yl}-4-[5-(trifluoromethyl)-1H-1,2,3-triazol-4-yl]pyridine]
15 | 0.1 to 1 | > 10 | FC(F)(F)c1[nH]nnc1-c1ccnc(-c2cn(CCc3ccc(Cl)cc3)cn2)c1 [Example 92, 2-{1-[2-(4-chlorophenyl)ethyl]-1H-imidazol-4-yl}-4-[5-(trifluoromethyl)-1H-1,2,3-triazol-4-yl]pyridine]
16 | ≤ 0.1 | > 10 | Fc1cccc(CCn2cnc(-c3cc(-c4nn[nH]c4C(F)(F)F)ccn3)c2)c1F [Example 79, 2-{1-[2-(2,3-difluorophenyl)ethyl]-1H-imidazol-4-yl}-4-[5-(trifluoromethyl)-1H-1,2,3-triazol-4-yl]pyridine]
17 | ≤ 0.1 | > 10 | COc1ccc2c(c1)C(Cn1cnc(-c3cc(-c4nn[nH]c4C(F)(F)F)ccn3)c1)CCC2 (stereo not drawn) [Example 106, 2-{1-[(7-methoxy-1,2,3,4-tetrahydronaphthalen-1-yl)methyl]-1H-imidazol-4-yl}-4-[5-(trifluoromethyl)-1H-1,2,3-triazol-4-yl]pyridine]
18 | 0.1 to 1 | > 10 | FC(F)(F)c1[nH]nnc1-c1ccnc(-c2cn(Cc3ccc(Cl)cc3)cn2)c1 [Example 63, 2-{1-[(4-chlorophenyl)methyl]-1H-imidazol-4-yl}-4-[5-(trifluoromethyl)-1H-1,2,3-triazol-4-yl]pyridine]
